Results reported in the NIST ThermoML archive (doi:10.1016/j.fluid.2008.03.011).
± gives the expanded uncertainty stated by the source.

How the values were obtained:
[1] = excess molar enthalpy (molar enthalpy of mixing); xn = mol fraction of the nth substance listed; settings: 363.15 K, Liquid, Flow calorimetry
[2] = activity coefficient (dimensionless); of the first substance listed, at infinite dilution; xn = mol fraction of the nth substance listed; settings: 101 kPa, Liquid, x1 = 0
[3] = activity coefficient (dimensionless); of the first substance listed, at infinite dilution; wn = mass fraction of the nth substance listed; settings: 101 kPa, Liquid, dilutor technique, w1 = 0

CCCCCC[n+]1ccn(C)c1.O=S(=O)([N-]S(=O)(=O)C(F)(F)F)C(F)(F)F + CC1CCCCC1
excess molar enthalpy ([1]; 1617 kPa, x2 = 0.0612): 0.0459 ± 0.00191 kcal/mol
excess molar enthalpy ([1]; 1617 kPa, x2 = 0.118): 0.092 ± 0.00382 kcal/mol
excess molar enthalpy ([1]; 1617 kPa, x2 = 0.1708): 0.132 ± 0.0055 kcal/mol
excess molar enthalpy ([1]; 1617 kPa, x2 = 0.2202): 0.166 ± 0.00669 kcal/mol
excess molar enthalpy ([1]; 1617 kPa, x2 = 0.2663): 0.176 ± 0.00717 kcal/mol
excess molar enthalpy ([1]; 1617 kPa, x2 = 0.3096): 0.173 ± 0.00693 kcal/mol
excess molar enthalpy ([1]; 1617 kPa, x2 = 0.3885): 0.154 ± 0.00621 kcal/mol
excess molar enthalpy ([1]; 1617 kPa, x2 = 0.4586): 0.136 ± 0.0055 kcal/mol
excess molar enthalpy ([1]; 1617 kPa, x2 = 0.5213): 0.12 ± 0.00502 kcal/mol
excess molar enthalpy ([1]; 1617 kPa, x2 = 0.6288): 0.0943 ± 0.00382 kcal/mol
excess molar enthalpy ([1]; 1617 kPa, x2 = 0.7176): 0.0722 ± 0.00287 kcal/mol
excess molar enthalpy ([1]; 1617 kPa, x2 = 0.7922): 0.0525 ± 0.00217 kcal/mol
excess molar enthalpy ([1]; 1617 kPa, x2 = 0.884): 0.0269 ± 0.00112 kcal/mol

CCCCCC[n+]1ccn(C)c1.O=S(=O)([N-]S(=O)(=O)C(F)(F)F)C(F)(F)F + CCCCCCCC
excess molar enthalpy ([1]; 1548 kPa, x2 = 0.0486): 0.0487 ± 0.00201 kcal/mol
excess molar enthalpy ([1]; 1548 kPa, x2 = 0.095): 0.0882 ± 0.00359 kcal/mol
excess molar enthalpy ([1]; 1548 kPa, x2 = 0.1392): 0.108 ± 0.0043 kcal/mol
excess molar enthalpy ([1]; 1548 kPa, x2 = 0.1814): 0.116 ± 0.00478 kcal/mol
excess molar enthalpy ([1]; 1548 kPa, x2 = 0.2217): 0.111 ± 0.00454 kcal/mol
excess molar enthalpy ([1]; 1548 kPa, x2 = 0.2603): 0.106 ± 0.0043 kcal/mol
excess molar enthalpy ([1]; 1548 kPa, x2 = 0.3327): 0.0959 ± 0.00382 kcal/mol
excess molar enthalpy ([1]; 1548 kPa, x2 = 0.3993): 0.0877 ± 0.00359 kcal/mol
excess molar enthalpy ([1]; 1548 kPa, x2 = 0.4608): 0.0791 ± 0.00335 kcal/mol
excess molar enthalpy ([1]; 1548 kPa, x2 = 0.5707): 0.0636 ± 0.00263 kcal/mol
excess molar enthalpy ([1]; 1548 kPa, x2 = 0.666): 0.0483 ± 0.00201 kcal/mol
excess molar enthalpy ([1]; 1548 kPa, x2 = 0.7495): 0.0384 ± 0.0016 kcal/mol
excess molar enthalpy ([1]; 1548 kPa, x2 = 0.8568): 0.0227 ± 0.000956 kcal/mol

CCO [ethanol] + CCCCCCn1cc[n+](C)c1.O=S(=O)([O-])C(F)(F)F
activity coefficient ([2]; 303.15 K, dilutor technique): 1.05 ± 0.07
activity coefficient ([2]; 313.15 K, dilutor technique): 1 ± 0.06
activity coefficient ([2]; 323.15 K, dilutor technique): 0.94 ± 0.06
activity coefficient ([2]; 333.15 K, dilutor technique): 0.86 ± 0.06

CCO [ethanol] + CCCC[N+]1(C)CCCC1.O=S(=O)([O-])C(F)(F)F
activity coefficient ([2]; 313.15 K, dilutor technique): 0.95 ± 0.06
activity coefficient ([2]; 323.15 K, dilutor technique): 0.92 ± 0.06
activity coefficient ([2]; 333.15 K, dilutor technique): 0.88 ± 0.06
activity coefficient ([2]; 343.15 K, dilutor technique): 0.86 ± 0.06

CCO [ethanol] + CCOS(=O)(=O)[O-].CCn1cc[n+](C)c1
activity coefficient ([2]; 323.15 K, dilutor technique): 0.57 ± 0.05
activity coefficient ([2]; 333.15 K, dilutor technique): 0.6 ± 0.05
activity coefficient ([2]; 343.15 K, dilutor technique): 0.65 ± 0.05
activity coefficient ([2]; 353.15 K, dilutor technique): 0.7 ± 0.05

CC1CCCCC1 [methylcyclohexane] + CCCCCCCC[N+]1(C)CCCC1.O=S(=O)([N-]S(=O)(=O)C(F)(F)F)C(F)(F)F
activity coefficient ([2]; 303.15 K, dilutor technique): 4.59 ± 0.41
activity coefficient ([2]; 313.15 K, dilutor technique): 4.41 ± 0.39
activity coefficient ([2]; 323.15 K, dilutor technique): 4.29 ± 0.38
activity coefficient ([2]; 333.15 K, dilutor technique): 4.18 ± 0.37

CC1CCCCC1 [methylcyclohexane] + CCCCCC[n+]1ccn(C)c1.O=S(=O)([N-]S(=O)(=O)C(F)(F)F)C(F)(F)F
activity coefficient ([2]; 303.15 K, dilutor technique): 6.83 ± 0.61
activity coefficient ([2]; 313.15 K, dilutor technique): 6.59 ± 0.59
activity coefficient ([2]; 323.15 K, dilutor technique): 6.3 ± 0.56
activity coefficient ([2]; 333.15 K, dilutor technique): 6.06 ± 0.54

CC1CCCCC1 [methylcyclohexane] + CCCCCCn1cc[n+](C)c1.O=S(=O)([O-])C(F)(F)F
activity coefficient ([2]; 303.15 K, dilutor technique): 10.5 ± 0.95
activity coefficient ([2]; 313.15 K, dilutor technique): 10.2 ± 0.9
activity coefficient ([2]; 323.15 K, dilutor technique): 9.77 ± 0.88
activity coefficient ([2]; 333.15 K, dilutor technique): 9.49 ± 0.85

Cc1ccccc1 [toluene] + CCCCCCCC[N+]1(C)CCCC1.O=S(=O)([N-]S(=O)(=O)C(F)(F)F)C(F)(F)F
activity coefficient ([2]; 303.15 K, dilutor technique): 0.67 ± 0.05
activity coefficient ([2]; 313.15 K, dilutor technique): 0.73 ± 0.05
activity coefficient ([2]; 323.15 K, dilutor technique): 0.8 ± 0.05
activity coefficient ([2]; 333.15 K, dilutor technique): 0.86 ± 0.06

Cc1ccccc1 [toluene] + CCCCCC[n+]1ccn(C)c1.O=S(=O)([N-]S(=O)(=O)C(F)(F)F)C(F)(F)F
activity coefficient ([2]; 303.15 K, dilutor technique): 0.85 ± 0.06
activity coefficient ([2]; 313.15 K, dilutor technique): 0.95 ± 0.06
activity coefficient ([2]; 323.15 K, dilutor technique): 1.05 ± 0.07
activity coefficient ([2]; 333.15 K, dilutor technique): 1.14 ± 0.07

Cc1ccccc1 [toluene] + CCCCCCn1cc[n+](C)c1.O=S(=O)([O-])C(F)(F)F
activity coefficient ([2]; 303.15 K, Dilutor technique): 1.38 ± 0.09
activity coefficient ([2]; 313.15 K, Dilutor technique): 1.52 ± 0.1
activity coefficient ([2]; 323.15 K, Dilutor technique): 1.65 ± 0.12
activity coefficient ([2]; 333.15 K, Dilutor technique): 1.75 ± 0.12

O [water] + CCCCCCn1cc[n+](C)c1.O=S(=O)([O-])C(F)(F)F
activity coefficient ([3]; 303.15 K): 1.31 ± 0.09
activity coefficient ([3]; 313.15 K): 1.04 ± 0.06
activity coefficient ([3]; 323.15 K): 0.82 ± 0.05
activity coefficient ([3]; 333.15 K): 0.64 ± 0.05

O [water] + CCCC[N+]1(C)CCCC1.O=S(=O)([O-])C(F)(F)F
activity coefficient ([2]; 313.15 K, dilutor technique): 0.67 ± 0.05
activity coefficient ([2]; 323.15 K, dilutor technique): 0.56 ± 0.05
activity coefficient ([2]; 333.15 K, dilutor technique): 0.51 ± 0.04
activity coefficient ([2]; 343.15 K, dilutor technique): 0.44 ± 0.04
